Source: patent US10544137B2, “PI3K inhibitor, and pharmaceutically acceptable salt, polycrystalline form, and application thereof” (SHANGHAI HAIYAN PHARMACEUTICAL TECHNOLOGY CO., LTD., priority 2016, dated 2020)
Converted amounts (≈) assume the structure as drawn. One block for each compound: values may come before it.

Legend:
Type in all cases: physicochemical
[1] = Hygroscopicity experiment (DVS); conditions: for hygroscopicity (in words): DVS, 25° C.; for moisture absorbed: humidity increased to 80% RH at 25° C.
Description: The Dynamic Vapor Sorption (DVS) curve was acquired on the DVS Intrinsic of Surface Measurement Systems.
The DVS test results of the crystal form A and the crystal form B-1 were shown in FIG. 26 and FIG. 27, respectively.
The DVS test results of the crystal form C, crystal form D-2, crystal form E, and crystal form F were shown in FIG. 28, FIG. 29, FIG. 30, and FIG. 31.

[2] = Solubility of crystal form I in common solvents; conditions: ambient temperature; for solubility: thermodynamic from solid
Experimental: The solubility of the crystal form I in 11 common solvents at ambient temperature was tested. In the experiment, the crystal form I was formulated into standard solutions of different concentrations using 50% acetonitrile as solvent according to the following table, and injected to the HPLC instrument. The peak area was recorded and the standard curve was plotted, and the curve equation: y=11.30762x, R^2=0.99998, which has a good linear correlation in a range of 4.9 μg/ml˜499 μg/ml was obtained. 10-80 mg of crystal form I was weighed into 0.5-10 ml of different solutions in the following table to prepare a saturated solution, sonicated for 3-5 min, dispersed evenly and then taken out, centrifuged at 12000 rpm for 5 min. The supernatant was drawn and diluted at a certain multiple, injected to the HPLC, the peak area was recorded, the sample concentration was calculated, and the pH of undiluted samples was determined.

[3] = Solid phase stability experiment (sealed at 60° C., HPLC purity); conditions: for solid phase stability (in words): 60° C., at 7 days and 21 days
Experimental: 5 mg of samples were weighed and sealed at 60° C., respectively. Another set of samples were sealed and stored at −20° C. as a control at the same time. All samples were characterized by HPLC at 7 days and 21 days to detect changes in purity.

[4] = Solubility experiment in 0.1M HCl, buffers and water; conditions: for Solubility (mg/mL) 0.1M HCl / Solubility (mg/mL) pH 4.5 / Solubility (mg/mL) pH 6.8 / Solubility (mg/mL) H2O: ambient temperature; for Solubility (mg/mL) pH 4.5: pH 4.5 buffer; for Solubility (mg/mL) pH 6.8: pH 6.8 buffer; for solubility in water compared with the free base (in words) / Solubility (mg/mL) H2O: water
Experimental: The solubilities of the following four kinds of salt and free base sample in 0.1M HCl, pH 4.5 buffer, pH 6.8 buffer, and water were tested at ambient temperature. In the test, the calibration curves of free base and four kinds of salt were plotted. 3 mg of solid samples of free base and four kinds of salt were weighed, respectively, and then 1 ml of the solvent was added, centrifuged after 30 min ultrasound. The supernatant was taken, and injected through the membrane, and the solubility was tested.

hygroscopicity (in words) [1]: almost no hygroscopicity
moisture absorbed [1]: 0.26%
SMILES: CS(=O)(=O)C1(c2cc(-c3cnc(N)cc3Cl)nc(N3CCOCC3)n2)CC1 [crystal form F]

hygroscopicity (in words) [1]: almost no hygroscopicity
water absorbed ([1]; humidity increased to 90% RH at 25° C.): 0.084%
Concentration ([2]; 50% acetonitrile): 10998 µg/mL
Concentration ([2]; acetone): 28464 µg/mL
Concentration ([2]; acetonitrile): 13724 µg/mL
solubility ([2]; aqueous with cosolvent or surfactant or cyclodextrin, 50% acetonitrile): 11000 µg/mL (≈ 26.8 mM)
Concentration ([2]; ethanol): 4680 µg/mL
Concentration ([2]; ethyl acetate): 12441 µg/mL
Concentration ([2]; isopropanol): 1837 µg/mL
Concentration ([2]; methanol): 9459 µg/mL
Concentration ([2]; methyl tert-butyl ether): 1044 µg/mL
solubility ([2]; organic solvent or mixture, acetone): 28500 µg/mL (≈ 69.4 mM)
solubility ([2]; organic solvent or mixture, acetonitrile): 13700 µg/mL (≈ 33.5 mM)
solubility ([2]; organic solvent or mixture, ethanol): > 4680 µg/mL
solubility ([2]; organic solvent or mixture, ethyl acetate): 12400 µg/mL (≈ 30.4 mM)
solubility ([2]; organic solvent or mixture, isopropanol): > 1840 µg/mL
solubility ([2]; organic solvent or mixture, methanol): > 9460 µg/mL
solubility ([2]; organic solvent or mixture, methyl tert-butyl ether): > 1040 µg/mL
solubility ([2]; organic solvent or mixture, tetrahydrofuran): 78100 µg/mL (≈ 191 mM)
Concentration ([2]; tetrahydrofuran): 78135 µg/mL
solubility ([2]; water): 185 µg/mL (≈ 0.451 mM)
Concentration ([2]; water): 185 µg/mL
SMILES: CS(=O)(=O)C1(c2cc(-c3cnc(N)cc3Cl)nc(N3CCOCC3)n2)CC1 [crystal form I, 4-chloro-5-(6-(1-(methylsulfonyl)cyclopropyl)-2-morpholinopyrimidin-4-yl)pyridin-2-amine]

hygroscopicity (in words) [1]: almost no hygroscopicity
moisture absorbed [1]: 0.12%
SMILES: CS(=O)(=O)C1(c2cc(-c3cnc(N)cc3Cl)nc(N3CCOCC3)n2)CC1 [crystal form E]

solid phase stability (in words) [3]: good stability
Purity (%) ([3]; 60° C.-0 day): 98.37%
Total impurities (%) ([3]; 60° C.-0 day): 1.63%
Purity (%) ([3]; 60° C.-7 days, sealed): 98.22%
Total impurities (%) ([3]; 60° C.-7 days, sealed): 1.78%
Purity (%) ([3]; 60° C.-21 days, sealed): 98.25%
Total impurities (%) ([3]; 60° C.-21 days, sealed): 1.75%
hygroscopicity (in words) [1]: almost no hygroscopicity
moisture absorbed [1]: 0.14%
Solubility (mg/mL) 0.1M HCl [4]: 1.195 mg/mL (≈ 2.92 mM)
Solubility (mg/mL) pH 4.5 [4]: 0.031 mg/mL
Solubility (mg/mL) pH 6.8 [4]: 0.013 mg/mL
solubility in water compared with the free base (in words) [4]: slightly improved
Solubility (mg/mL) H2O [4]: 0.023 mg/mL (≈ 0.0561 mM)
SMILES: CS(=O)(=O)C1(c2cc(-c3cnc(N)cc3Cl)nc(N3CCOCC3)n2)CC1 [crystal form D-2]

solid phase stability (in words) [3]: good stability
Purity (%) ([3]; 60° C.-0 day): 99.73%
Total impurities (%) ([3]; 60° C.-0 day): 0.27%
Purity (%) ([3]; 60° C.-7 days, sealed): 99.78%
Total impurities (%) ([3]; 60° C.-7 days, sealed): 0.22%
Purity (%) ([3]; 60° C.-21 days, sealed): 99.75%
Total impurities (%) ([3]; 60° C.-21 days, sealed): 0.25%
hygroscopicity (in words) [1]: slightly hygroscopic
Solubility (mg/mL) 0.1M HCl [4]: >2.744 mg/mL
Solubility (mg/mL) pH 4.5 [4]: 0.020 mg/mL
Solubility (mg/mL) pH 6.8 [4]: 0.012 mg/mL
solubility in water compared with the free base (in words) [4]: obviously improved
Solubility (mg/mL) H2O [4]: 1.063 mg/mL (≈ 2.59 mM)
SMILES: CS(=O)(=O)C1(c2cc(-c3cnc(N)cc3Cl)nc(N3CCOCC3)n2)CC1 [crystal form A]

solid phase stability (in words) [3]: good stability
Purity (%) ([3]; 60° C.-0 day): 99.73%
Total impurities (%) ([3]; 60° C.-0 day): 0.27%
Purity (%) ([3]; 60° C.-7 days, sealed): 99.74%
Total impurities (%) ([3]; 60° C.-7 days, sealed): 0.26%
Purity (%) ([3]; 60° C.-21 days, sealed): 99.75%
Total impurities (%) ([3]; 60° C.-21 days, sealed): 0.25%
hygroscopicity (in words) [1]: almost no hygroscopicity
moisture absorbed [1]: 0.17%
Solubility (mg/mL) 0.1M HCl [4]: 1.875 mg/mL (≈ 4.57 mM)
Solubility (mg/mL) pH 4.5 [4]: 0.027 mg/mL
Solubility (mg/mL) pH 6.8 [4]: 0.010 mg/mL
solubility in water compared with the free base (in words) [4]: obviously improved
Solubility (mg/mL) H2O [4]: 0.174 mg/mL (≈ 0.424 mM)
SMILES: CS(=O)(=O)C1(c2cc(-c3cnc(N)cc3Cl)nc(N3CCOCC3)n2)CC1 [crystal form C]

solid phase stability (in words) [3]: good stability
Purity (%) ([3]; 60° C.-0 day): 99.74%
Total impurities (%) ([3]; 60° C.-0 day): 0.26%
Purity (%) ([3]; 60° C.-7 days, sealed): 99.50%
Total impurities (%) ([3]; 60° C.-7 days, sealed): 0.50%
Purity (%) ([3]; 60° C.-21 days, sealed): 99.74%
Total impurities (%) ([3]; 60° C.-21 days, sealed): 0.26%
hygroscopicity (in words) [1]: slightly hygroscopic
Solubility (mg/mL) 0.1M HCl [4]: >2.488 mg/mL
Solubility (mg/mL) pH 4.5 [4]: 0.026 mg/mL
Solubility (mg/mL) pH 6.8 [4]: 0.012 mg/mL
solubility in water compared with the free base (in words) [4]: obviously improved
Solubility (mg/mL) H2O [4]: 0.946 mg/mL (≈ 2.31 mM)
SMILES: CS(=O)(=O)C1(c2cc(-c3cnc(N)cc3Cl)nc(N3CCOCC3)n2)CC1 [crystal form B-1]
